Experimental data from patent US5126506A, “2',3'-Dideoxy-2'-fluoronucleosides” (Bristol-Myers Company, priority 1990, dated 1992).
pIC50: −log10 of the molar value.

Experiments:
[1] = test system: HIV; assay: Inhibition of cytopathic effect (CPE) in HTLV-1 transformed MT-2 cells infected with HIV virus; assay type: cell-based; settings: MT2, 168 h, anti-HIV in vitro, inhibition of CPE measured seven days after infection, read-out: ID50 (50% inhib. conc.)
Method: The assays were done in HTLV-1 transformed MT-2 cells infected with HIV virus. Inhibition of cytopathic effect CPE) was measured seven days after infection in comparison with control infected cells (Elaine Kinney-Thomas,(Bioch. Pharm., vol.36,pp 311-316, 1987).

[2] = test system: HIV; settings: cited from earlier work; for anti-HIV activity: statement in words
[3] = compared with ddA; cited from earlier work

SMILES	pIC50 [1]	also measured
Cc1cn([C@@H]2O[C@H](CO)C[C@@H]2F)c(=O)[nH]c1=O [Compound 7, 2', 3'-Dideoxy-2'-fluoroarabino-thymidine]	< 4.00	–
Nc1ccn([C@@H]2O[C@H](CO)C[C@@H]2F)c(=O)n1 [Compound 5, 2',3'-Dideoxy-2'-fluoroarabino-cytidine]	5.40	–
Nc1ncnc2c1ncn2[C@@H]1O[C@H](CO)C[C@@H]1F [Compound C, 6-amino-9-(β-D-2',3'-dideoxy-2'-fluoroarabinofuranosyl)-H-purine]	–	activity and potency against HIV relative to AZT or ddA ([2]; compared with AZT or ddA): about as active and potent as AZT or ddA; anti-HIV activity [2]: active anti-HIV agents
Nc1ncnc2c1ncn2[C@@H]1O[C@H](CO)C[C@H]1F [Compound B, 6-amino-(β'D-2',3'-dideoxy-2'-fluororibofuranosyl)-9-H-purine]	–	protection against HIV relative to that seen with ddA ([2]; % of protection seen with ddA): 13%; anti-HIV activity [2]: active anti-HIV agents; toxicity relative to ddA [3]: more toxic than ddA

The next lines start with results.

pIC50 [1]	SMILES	also measured
4.00 to 5.00	Cc1cn([C@@H]2O[C@H](CO)C=C2F)c(=O)[nH]c1=O [Compound 11, 2',3'-Dideoxy-2'3'-didehydro-2'-fluoro-thymidine]	–
< 4.00	Cc1cn([C@@H]2O[C@H](CO)[C@@H](N=[N+]=[N-])[C@@H]2F)c(=O)[nH]c1=O [Compound 17, 2',3'-Dideoxy-2'-fluoroarabino-3'-azido-thymidine]	–
4.32 to 4.82	Nc1ccn([C@@H]2O[C@H](CO)C=C2F)c(=O)n1 [Compound 16, 2',3'-Dideoxy-2',3'-dehydro-2'-fluoro-cytidine]	–
